In patent publication US20070026080A1, “Manufacturing process for tigecycline” (Wyeth, priority 2005, published 2007):
Where “and” joins values, the source holds several entries; their conditions need not be identical. Equal values may be shown once. Marks after values point to notes of the source that are not given here.

Assay: Strength and degradation profile of tigecycline 20 mg/mL bulk solutions by reversed phase HPLC (effect of temperature, time, pH, dissolved oxygen; Runs A to O)
Assay type: physicochemical
Settings: 20 mg/mL
Description: The contents of the sample vials are dissolved in diluent. The sample solution is diluted, if necessary, and chromatographed on a reversed phase column using gradient elution. Impurities are determined by comparing the impurity peak areas in the sample preparation chromatogram to the average area of tigecycline peaks in the standard preparation chromatograms obtained concomitantly.
Chromatographic Column—Length about 15 cm, inside diameter about 4.6 mm, packed with Inertsil ODS2, 5 μm size particles or equivalent.
Detector—Ultraviolet spectrophotometric detector capable of operating at 248 nm with a sensitivity of about 0.5 absorbance units full scale.
The results of additional studies to investigate the effect of processing parameters such as temperature, time, and dissolved oxygen content on the purity profile of tigecycline solutions using the following materials, methods and procedures are presented in Tables A to O.
The experiments were run in plastic glove bags under normal laboratory light conditions. Plastic glove boxes will be used to control the headspace of the beakers. The batch size was 200 mL. • 1. Prepare the glove bag with a mixture of nitrogen and air to achieve an oxygen level in the solution as per the design. • 2. Place the jacketed beaker on the magnetic stirrer. Connect it to the cooler. Set the cooler to the desired set point. • 3. Add 200 mL of SWFI in to the beaker. Allow equilibrating. Measure the temperature and oxygen content. When it reaches the desired condition, add accurately weighed API and mix until dissolved. If necessary use spatula to aid dissolution. For pH adjustments, use 4 mL of either 0.1N NaOH or 0.1N HCl and 196 mL of WFI for manufacture. • 4. After complete dissolution, Transfer about 5.5 mL of Solution in vials and stopper them. These vials will be stoppered at the appropriate headspace conditions. Place the vials in appropriate temperature conditions. • 5. Sample the vials at 1, 4, 8, 10, 12 and 24 hours. Send the samples for analysis. Freeze the 10, 12 and 24 samples at −20° C. for analysis the following day. • 6. Measure pH and record color of the solution at each time point. Results
The 1-hour samples were taken directly from the beakers. Samples for later time points were collected in stoppered vials processed in the atmosphere of the bag in order to simulate the headspace conditions then placed in water baths or refrigerator to maintain there respective temperature conditions. This was done to maintain safety in the lab. Disposable plastic glove bags require constant flow of a mixture of nitrogen and air to maintain headspace oxygen level that will result in the desired dissolved oxygen (DO) content in the sample. The pH of samples was measured at each sample points.
Strength and degradation profile was analyzed by HPLC as described above. […] Degradation was slightly higher at higher temperature condition.

[1] = Run #D, 8° C., pH 7.7, Oxygen 2.0 mg/L, hours 1,4,8,10,12,24 at r6-r11, after 4 hours
[2] = Run #D, 8° C., pH 7.7, Oxygen 2.0 mg/L, hours 1,4,8,10,12,24 at r6-r11, after 8 hours
[3] = Run #D, 8° C., pH 7.7, Oxygen 2.0 mg/L, hours 1,4,8,10,12,24 at r6-r11, after 10 hours
[4] = Run #D, 8° C., pH 7.7, Oxygen 2.0 mg/L, hours 1,4,8,10,12,24 at r6-r11, after 12 hours
[5] = Run #D, 8° C., pH 7.7, Oxygen 2.0 mg/L, hours 1,4,8,10,12,24 at r6-r11, after 24 hours
[6] = Run #D, 8° C., pH 7.7, Oxygen 2.0 mg/L, hours 1,4,8,10,12,24 at r17-r22, after 1 hours
[7] = Run #D, 8° C., pH 7.7, Oxygen 2.0 mg/L, hours 1,4,8,10,12,24 at r17-r22, after 4 hours
[8] = Run #D, 8° C., pH 7.7, Oxygen 2.0 mg/L, hours 1,4,8,10,12,24 at r17-r22, after 8 hours
[9] = Run #D, 8° C., pH 7.7, Oxygen 2.0 mg/L, hours 1,4,8,10,12,24 at r17-r22, after 10 hours
[10] = Run #D, 8° C., pH 7.7, Oxygen 2.0 mg/L, hours 1,4,8,10,12,24 at r17-r22, after 12 hours
[11] = Run #D, 8° C., pH 7.7, Oxygen 2.0 mg/L, hours 1,4,8,10,12,24 at r17-r22, after 24 hours
[12] = Run #E, 5° C., Oxygen = 2.0 mg/mL, hours 1,4,8,12,24 at r6-r10
[13] = Run #E, 5° C., Oxygen = 2.0 mg/mL, hours 1,4,8,12,24 at r16-r20, 1 hours
[14] = Run #E, 5° C., Oxygen = 2.0 mg/mL, hours 1,4,8,12,24 at r16-r20, 4 hours
[15] = Run #E, 5° C., Oxygen = 2.0 mg/mL, hours 1,4,8,12,24 at r16-r20, 8 hours
[16] = Run #E, 5° C., Oxygen = 2.0 mg/mL, hours 1,4,8,12,24 at r16-r20, 12 hours
[17] = Run #E, 5° C., Oxygen = 2.0 mg/mL, hours 1,4,8,12,24 at r16-r20, 24 hours
[18] = Run #F, 2° C., hours 1,4,8,12,24 at r5-r9, 1 h after preparation
[19] = Run #F, 2° C., hours 1,4,8,12,24 at r5-r9, 4 h after preparation

SMILES: CN(C)c1cc(NC(=O)CNC(C)(C)C)c(O)c2c1C[C@H]1C[C@H]3[C@H](N(C)C)C(O)=C(C(N)=O)C(=O)[C@@]3(O)C(O)=C1C2=O [Tigecycline]
- Strength (Run #D, 8° C., pH 7.7, Oxygen 2.0 mg/L, hours 1,4,8,10,12,24 at r6-r11, after 1 hours): 19.168 mg/mL
- RRT 0.55 MW = 583 [1]: 0.16%
- RRT 0.74 Epimer [1]: 0.18%
- Strength [1]: 18.918 mg/mL
- RRT 0.55 MW = 583 [2]: 0.23%
- Strength [2]: 18.915 mg/mL
- RRT 0.55 MW = 583 [3]: 0.27%
- RRT 0.74 Epimer [3]: 0.25%
- Strength [3]: 19.292 mg/mL
- RRT 0.55 MW = 583 [4]: 0.29%
- RRT 0.74 Epimer [4]: 0.24%
- Strength [4]: 18.728 mg/mL
- RRT 0.55 MW = 583 [5]: 0.36%
- RRT 0.74 Epimer [5]: 0.27%
- Strength [5]: 18.050 mg/mL
- RRT 1.45 [6]: 0.07%
- RRT 1.67 MW = 556 [6]: 0.10%
- RRT 1.85 MW = 597 [6]: 0.08%
- Total [6]: 0.65%
- RRT 1.45 [7]: 0.19%
- RRT 1.67 MW = 556 [7]: 0.21%
- Total [7]: 1.09%
- RRT 1.45 [8]: 0.06%
- RRT 1.67 MW = 556 [8]: 0.37%
- RRT 1.85 MW = 597 [8]: 0.14%
- Total [8]: 1.57%
- RRT 1.67 MW = 556 [9]: 0.24%
- Total [9]: 2.27%
- RRT 1.45 [10]: 0.10%
- RRT 1.67 MW = 556 [10]: 0.28%
- RRT 1.85 MW = 597 [10]: 0.09%
- Total [10]: 2.47%
- RRT 1.67 MW = 556 [11]: 0.51%
- RRT 1.85 MW = 597 [11]: 0.10%
- Total [11]: 4.32%
- RRT 0.55 MW = 583 [12]: 0.43% and 0.07% and 0.17% and 0.22% and 0.33%
- Strength [12]: 17.950 mg/mL and 19.261 mg/mL and 19.215 mg/mL and 18.970 mg/mL and 18.475 mg/mL
- RRT 0.58 [13]: 0.08%
- RRT 0.74 Epimer [13]: 0.16%
- RRT 0.76 [13]: 0.05%
- RRT 1.45 [13]: 0.08%
- RRT 1.85 MW = 597 [13]: 0.08%
- Total [13]: 0.67%
- RRT 0.58 [14]: 0.07%
- RRT 0.74 Epimer [14]: 0.17%
- RRT 1.85 MW = 597 [14]: 0.07%
- Total [14]: 0.96%
- RRT 0.74 Epimer [15]: 0.19%
- RRT 0.76 [15]: 0.11%
- RRT 1.45 [15]: 0.10%
- RRT 1.85 MW = 597 [15]: 0.09%
- Total [15]: 1.58%
- RRT 0.74 Epimer [16]: 0.24%
- RRT 0.76 [16]: 0.12%
- RRT 1.85 MW = 597 [16]: 0.11%
- Total [16]: 3.15%
- RRT 0.58 [17]: 0.05%
- RRT 0.74 Epimer [17]: 0.28%
- RRT 0.76 [17]: 0.13%
- RRT 1.45 [17]: 0.07%
- RRT 1.85 MW = 597 [17]: 0.12%
- Total [17]: 4.23%
- RRT 1.67 MW = 556 (Run #E, 5° C., Oxygen = 2.0 mg/mL, hours 1,4,8,12,24 at r16-r20, at 24 h Mino is co-eluting, 1 hours): 0.08%
- RRT 1.67 MW = 556 (Run #E, 5° C., Oxygen = 2.0 mg/mL, hours 1,4,8,12,24 at r16-r20, at 24 h Mino is co-eluting, 4 hours): 0.16%
- RRT 1.67 MW = 556 (Run #E, 5° C., Oxygen = 2.0 mg/mL, hours 1,4,8,12,24 at r16-r20, at 24 h Mino is co-eluting, 8 hours): 0.26%
- RRT 1.67 MW = 556 (Run #E, 5° C., Oxygen = 2.0 mg/mL, hours 1,4,8,12,24 at r16-r20, at 24 h Mino is co-eluting, 12 hours): 0.39%
- RRT 1.67 MW = 556 (Run #E, 5° C., Oxygen = 2.0 mg/mL, hours 1,4,8,12,24 at r16-r20, at 24 h Mino is co-eluting, 24 hours): 0.44^a %
- Strength (Run #F, 2° C., Oxygen = 1.0 mg/mL, hours 1,4,8,12,24 at r5-r9, 1 h after preparation): 18.733 mg/mL
- Strength (Run #F, 2° C., Oxygen = 1.0 mg/mL, hours 1,4,8,12,24 at r5-r9, 4 h after preparation): 18.700 mg/mL
- Strength (Run #F, 2° C., Oxygen = 1.0 mg/mL, hours 1,4,8,12,24 at r5-r9, 8 h after preparation): 18.729 mg/mL
- Strength (Run #F, 2° C., Oxygen = 1.0 mg/mL, hours 1,4,8,12,24 at r5-r9, 12 h after preparation): 18.543 mg/mL
- Strength (Run #F, 2° C., Oxygen = 1.0 mg/mL, hours 1,4,8,12,24 at r5-r9, 24 h after preparation): 18.818 mg/mL
- RRT 0.58 [18]: 0.08%
- RRT 0.74 Epimer [18]: 0.15%
- RRT 1.45 [18]: 0.07%
- RRT 1.64 Mino [18]: 0.10%
- RRT 1.85 MW = 597 [18]: 0.07%
- Total [18]: 0.47%
- RRT 0.58 [19]: 0.07%
- RRT 0.74 Epimer [19]: 0.16%
- RRT 1.64 Mino [19]: 0.09%
- RRT 1.85 MW = 597 [19]: 0.09%
- Total [19]: 0.71%
- RRT 0.74 Epimer (Run #F, 2° C., hours 1,4,8,12,24 at r5-r9, 8 h after preparation): 0.17%
